# Measurements published in ChEMBL document CHEMBL4138123, “Design, synthesis and biological evaluation of novel pyrazolochalcones as potential modulators of PI3K/Akt/mTOR pathway and inducers of apoptosis in breast cancer cells” (Eur J Med Chem, 2017).
# pIC50: −log10 of the molar value.
# Tests used:
# DU-145 = assay: Cytotoxicity against human DU145 cells assessed as cell growth at 1 uM after 48 hrs by sulforhodamine B assay relative to control; assay type: functional; conditions: DU-145, 48 h, read-out: Activity
# RXF 393 [1] = assay: Cytotoxicity against human RXF393 cells assessed as cell growth at 1 uM after 48 hrs by sulforhodamine B assay relative to control; assay type: functional; conditions: RXF 393, 48 h, read-out: Activity
# NCI-H322M = assay: Cytotoxicity against human NCI-H322M cells assessed as growth inhibition after 48 hrs by sulforhodamine B assay; assay type: functional; conditions: for CC50: read-out: LC50 (the source's name)
# K562 = assay: Cytotoxicity against human K562 cells assessed as cell growth at 10 uM after 48 hrs by sulforhodamine B assay relative to control; assay type: functional; conditions: K562, 48 h, read-out: Activity
# NCI-H460 = assay: Cytotoxicity against human NCI-H460 cells assessed as cell growth at 0.1 uM after 48 hrs by sulforhodamine B assay relative to control; assay type: functional; conditions: NCI-H460, 48 h, read-out: Activity
# OVCAR-5 [2] = assay: Cytotoxicity against human OVCAR5 cells assessed as cell growth at 0.01 uM after 48 hrs by sulforhodamine B assay relative to control; assay type: functional; conditions: OVCAR-5, 48 h, read-out: Activity
# OVCAR-3 = assay: Cytotoxicity against human OVCAR3 cells assessed as cell growth at 0.01 uM after 48 hrs by sulforhodamine B assay relative to control; assay type: functional; conditions: OVCAR-3, 48 h, read-out: Activity
# SK-OV-3 = assay: Cytotoxicity against human SKOV3 cells assessed as cell growth at 10 uM after 48 hrs by sulforhodamine B assay relative to control; assay type: functional; conditions: SK-OV-3, 48 h, read-out: Activity
# NCI-H23 [3] = assay: Cytotoxicity against human NCI-H23 cells assessed as cell growth at 0.01 uM after 48 hrs by sulforhodamine B assay relative to control; assay type: functional; conditions: NCI-H23, 48 h, read-out: Activity
# HCC 2998 = assay: Cytotoxicity against human HCC2998 cells assessed as cell growth at 0.1 uM after 48 hrs by sulforhodamine B assay relative to control; assay type: functional; conditions: HCC 2998, 48 h, read-out: Activity
# NCI/ADR-RES = assay: Cytotoxicity against human NCI/ADR-RES cells assessed as cell growth at 0.01 uM after 48 hrs by sulforhodamine B assay relative to control; assay type: functional; conditions: read-out: Activity
# HL-60(TB) = assay: Cytotoxicity against human HL-60(TB) cells assessed as cell growth at 100 uM after 48 hrs by sulforhodamine B assay relative to control; assay type: functional; conditions: HL-60, 48 h, read-out: Activity
# COLO 205 = assay: Cytotoxicity against human COLO205 cells assessed as cell growth at 0.1 uM after 48 hrs by sulforhodamine B assay relative to control; assay type: functional; conditions: COLO 205, 48 h, read-out: Activity
# OVCAR-4 [4] = assay: Cytotoxicity against human OVCAR4 cells assessed as growth inhibition after 48 hrs by sulforhodamine B assay; assay type: functional; conditions: OVCAR-4, 48 h
# U-251 = assay: Cytotoxicity against human U251 cells assessed as cell growth at 100 uM after 48 hrs by sulforhodamine B assay relative to control; assay type: functional; conditions: U-251, 48 h, read-out: Activity
# PC-3 = assay: Cytotoxicity against human PC3 cells assessed as growth inhibition after 48 hrs by sulforhodamine B assay; assay type: functional; conditions: PC-3, 48 h
# NCI-H226 = assay: Cytotoxicity against human NCI-H226 cells assessed as growth inhibition after 48 hrs by sulforhodamine B assay; assay type: functional; conditions: NCI-H226, 48 h
# OVCAR-5 [5] = assay: Cytotoxicity against human OVCAR5 cells assessed as cell growth at 100 uM after 48 hrs by sulforhodamine B assay relative to control; assay type: functional; conditions: OVCAR-5, 48 h, read-out: Activity
# RXF 393 [6] = assay: Cytotoxicity against human RXF393 cells assessed as cell growth at 10 uM after 48 hrs by sulforhodamine B assay relative to control; assay type: functional; conditions: RXF 393, 48 h, read-out: Activity
# UACC-257 [7] = assay: Cytotoxicity against human UACC257 cells assessed as cell growth at 1 uM after 48 hrs by sulforhodamine B assay relative to control; assay type: functional; conditions: UACC-257, 48 h, read-out: Activity
# OVCAR-4 [8] = assay: Cytotoxicity against human OVCAR4 cells assessed as cell growth at 100 uM after 48 hrs by sulforhodamine B assay relative to control; assay type: functional; conditions: OVCAR-4, 48 h, read-out: Activity
# MDA-MB-231 = assay: Cytotoxicity against human MDA-MB-231 cells assessed as growth inhibition after 48 hrs by MTT assay; assay type: functional, cell-based; conditions: MDA-MB-231, 48 h
# MCF7 = assay: Cytotoxicity against human MCF7 cells assessed as cell growth at 1 uM after 48 hrs by sulforhodamine B assay relative to control; assay type: functional; conditions: MCF7, 48 h, read-out: Activity
# NCI-H23 [9] = assay: Cytotoxicity against human NCI-H23 cells assessed as cell growth at 100 uM after 48 hrs by sulforhodamine B assay relative to control; assay type: functional; conditions: NCI-H23, 48 h, read-out: Activity
# UO-31 = assay: Cytotoxicity against human UO31 cells assessed as cell growth at 1 uM after 48 hrs by sulforhodamine B assay relative to control; assay type: functional; conditions: UO-31, 48 h, read-out: Activity
# UACC-257 [10] = assay: Cytotoxicity against human UACC257 cells assessed as cell growth at 100 uM after 48 hrs by sulforhodamine B assay relative to control; assay type: functional; conditions: UACC-257, 48 h, read-out: Activity
# MOLT-4 = assay: Cytotoxicity against human MOLT4 cells assessed as cell growth at 0.1 uM after 48 hrs by sulforhodamine B assay relative to control; assay type: functional; conditions: MOLT-4, 48 h, read-out: Activity
# HCT-116 = assay: Cytotoxicity against human HCT116 cells assessed as growth inhibition after 48 hrs by sulforhodamine B assay; assay type: functional; conditions: HCT-116, 48 h
# SN12C [11] = assay: Cytotoxicity against human SN12C cells assessed as cell growth at 1 uM after 48 hrs by sulforhodamine B assay relative to control; assay type: functional; conditions: read-out: Activity
# OVCAR-8 = assay: Cytotoxicity against human OVCAR8 cells assessed as cell growth at 100 uM after 48 hrs by sulforhodamine B assay relative to control; assay type: functional; conditions: OVCAR-8, 48 h, read-out: Activity
# NCI-H522 = assay: Cytotoxicity against human NCI-H522 cells assessed as cell growth at 0.01 uM after 48 hrs by sulforhodamine B assay relative to control; assay type: functional; conditions: NCI-H522, 48 h, read-out: Activity
# SN12C [12] = assay: Cytotoxicity against human SN12C cells assessed as cell growth at 0.1 uM after 48 hrs by sulforhodamine B assay relative to control; assay type: functional; conditions: read-out: Activity
# SNB-19 = assay: Cytotoxicity against human SNB19 cells assessed as cell growth at 0.01 uM after 48 hrs by sulforhodamine B assay relative to control; assay type: functional; conditions: SNB-19, 48 h, read-out: Activity
# TK-10 = assay: Cytotoxicity against human TK10 cells assessed as cell growth at 10 uM after 48 hrs by sulforhodamine B assay relative to control; assay type: functional; conditions: TK-10, 48 h, read-out: Activity
# HT-29 = assay: Cytotoxicity against human HT-29 cells assessed as cell growth at 10 uM after 48 hrs by sulforhodamine B assay relative to control; assay type: functional; conditions: HT-29, 48 h, read-out: Activity
smiles,measurement,setting,value
COc1ccc(-c2cc(/C=C/C(=O)c3ccc(OC)c(OC)c3)[nH]n2)cc1,growth at 1 µM,DU-145,74%
same,growth at 1 µM,RXF 393 [1],72%
same,GI50,NCI-H322M,1.62 µM
same,TGI,NCI-H322M,4.92 µM
same,CC50,NCI-H322M,18.7 µM
same,growth at 10 µM,K562,1%
same,growth at 0.1 µM,NCI-H460,101%
same,growth at 0.01 µM,OVCAR-5 [2],93%
same,growth at 0.01 µM,OVCAR-3,106%
same,growth at 10 µM,SK-OV-3,29%
same,growth at 0.01 µM,NCI-H23 [3],100%
same,growth at 0.1 µM,HCC 2998,105%
same,growth at 0.01 µM,NCI/ADR-RES,102%
same,growth at 100 µM,HL-60(TB),-43%
same,growth at 0.1 µM,COLO 205,104%
same,GI50,OVCAR-4 [4],0.59 µM
same,LC50,OVCAR-4 [4],28.4 µM
same,TGI,OVCAR-4 [4],3.87 µM
same,growth at 100 µM,U-251,-100%
same,GI50,PC-3,1.45 µM
same,LC50,PC-3,8.3 µM
same,TGI,PC-3,3.46 µM
same,GI50,NCI-H226,1.54 µM
same,TGI,NCI-H226,3.51 µM
same,growth at 100 µM,OVCAR-5 [5],-87%
same,growth at 10 µM,RXF 393 [6],-82%
same,growth at 1 µM,UACC-257 [7],87%
same,growth at 100 µM,OVCAR-4 [8],-77%
same,pIC50,MDA-MB-231,6.22
same,growth at 1 µM,MCF7,27%
same,growth at 100 µM,NCI-H23 [9],-73%
same,growth at 1 µM,UO-31,61%
same,growth at 100 µM,UACC-257 [10],-100%
same,growth at 0.1 µM,MOLT-4,108%
same,GI50,HCT-116,1.01 µM
same,LC50,HCT-116,6.08 µM
same,TGI,HCT-116,2.48 µM
same,growth at 1 µM,SN12C [11],80%
same,growth at 100 µM,OVCAR-8,-66%
same,growth at 0.01 µM,NCI-H522,102%
same,growth at 0.1 µM,SN12C [12],93%
same,growth at 0.01 µM,SNB-19,96%
same,growth at 10 µM,TK-10,-59%
same,growth at 10 µM,HT-29,-66%
COc1ccc(-c2cc(/C=C/C(=O)c3ccc(N)cc3)[nH]n2)cc1OC,growth at 1 µM,DU-145,97%
same,growth at 1 µM,RXF 393 [1],94%
same,GI50,NCI-H322M,4.34 µM
same,TGI,NCI-H322M,16.5 µM
same,CC50,NCI-H322M,46.2 µM
same,growth at 10 µM,K562,3%
same,growth at 0.1 µM,NCI-H460,100%
same,growth at 0.01 µM,OVCAR-5 [2],91%
same,growth at 0.01 µM,OVCAR-3,106%
same,growth at 10 µM,SK-OV-3,29%
same,growth at 0.01 µM,NCI-H23 [3],103%
same,growth at 0.1 µM,HCC 2998,100%
same,growth at 0.01 µM,NCI/ADR-RES,102%
same,growth at 100 µM,HL-60(TB),3%
same,growth at 0.1 µM,COLO 205,95%
same,GI50,OVCAR-4 [4],2.68 µM
same,LC50,OVCAR-4 [4],40.5 µM
same,TGI,OVCAR-4 [4],15.8 µM
same,growth at 100 µM,U-251,-96%
same,GI50,PC-3,3.71 µM
same,LC50,PC-3,> 100 µM
same,TGI,PC-3,19.8 µM
same,GI50,NCI-H226,2.32 µM
same,LC50 (concentration killing 50% of cells),NCI-H226,76.2 µM
same,TGI,NCI-H226,7.38 µM
same,growth at 100 µM,OVCAR-5 [5],-81%
same,growth at 10 µM,RXF 393 [6],-39%
same,growth at 1 µM,UACC-257 [7],96%
same,growth at 100 µM,OVCAR-4 [8],-98%
same,pIC50,MDA-MB-231,5.66
same,growth at 1 µM,MCF7,81%
same,growth at 100 µM,NCI-H23 [9],-51%
same,growth at 1 µM,UO-31,86%
same,growth at 100 µM,UACC-257 [10],-96%
same,growth at 0.1 µM,MOLT-4,106%
same,GI50,HCT-116,1.71 µM
same,LC50,HCT-116,7.19 µM
same,TGI,HCT-116,3.51 µM
same,growth at 1 µM,SN12C [11],93%
same,growth at 100 µM,OVCAR-8,-86%
same,growth at 0.01 µM,NCI-H522,92%
same,growth at 0.1 µM,SN12C [12],99%
same,growth at 0.01 µM,SNB-19,96%
same,growth at 10 µM,TK-10,56%
same,growth at 10 µM,HT-29,-19%
COc1ccc(C(=O)/C=C/c2cc(-c3cc(OC)c(OC)c(OC)c3)n[nH]2)cc1OC,growth at 1 µM,DU-145,32%
same,growth at 1 µM,RXF 393 [1],72%
same,TGI,NCI-H322M,2.9 µM
same,CC50,NCI-H322M,5.51 µM
same,growth at 10 µM,K562,-13%
same,growth at 0.1 µM,NCI-H460,101%
same,growth at 0.01 µM,OVCAR-5 [2],101%
same,growth at 0.01 µM,OVCAR-3,100%
same,growth at 10 µM,SK-OV-3,-12%
same,growth at 0.01 µM,NCI-H23 [3],93%
same,growth at 0.1 µM,HCC 2998,88%
same,growth at 0.01 µM,NCI/ADR-RES,99%
same,growth at 100 µM,HL-60(TB),-51%
same,growth at 0.1 µM,COLO 205,106%
same,LC50,OVCAR-4 [4],49.9 µM
same,TGI,OVCAR-4 [4],16.6 µM
same,growth at 100 µM,U-251,-99%
same,LC50,PC-3,5.76 µM
same,TGI,PC-3,2.8 µM
same,TGI,NCI-H226,3.32 µM
same,growth at 100 µM,OVCAR-5 [5],-71%
same,growth at 10 µM,RXF 393 [6],-98%
same,growth at 1 µM,UACC-257 [7],81%
same,growth at 100 µM,OVCAR-4 [8],-82%
same,pIC50,MDA-MB-231,6.21
same,growth at 1 µM,MCF7,31%
same,growth at 100 µM,NCI-H23 [9],-75%
same,growth at 1 µM,UO-31,67%
same,growth at 100 µM,UACC-257 [10],-97%
same,growth at 0.1 µM,MOLT-4,98%
same,TGI,HCT-116,2.63 µM
same,growth at 1 µM,SN12C [11],80%
same,growth at 100 µM,OVCAR-8,-96%
same,growth at 0.01 µM,NCI-H522,83%
same,growth at 0.1 µM,SN12C [12],94%
same,growth at 0.01 µM,SNB-19,91%
same,growth at 10 µM,TK-10,100%
same,growth at 10 µM,HT-29,-94%
